Laboratory results reported in patent US9290474B2, “Methods for making and using novel semi-synthetic small molecules for the treatment parasitic disease” (The Regents of the University of California, priority 2011, dated 2016).

Tested on: T. brucei brucei
Test: Screening against T. brucei (antiparasitic activity)
Type: cell-based, Trypanosoma brucei
Conditions: initial screening

SMILES: CC1(C)C=CC(=O)[C@@]2(C)OOC3C[C@]12CCC3(O)CO (stereo partly shown) [Merulin C, merulin C]
- activity against T. brucei brucei: 0.8 µM
